Source: PubChem BioAssay (NCI)
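48-hour exposure; five concentrations; linearly interpolated endpoints. The concentration for full growth arrest is given as TGI.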

How the values were obtained:
Assay in all cases: NCI tumour cell line growth inhibition, 48 h
[1] = test system: DLD-1 colon
[2] = test system: DMS 114 small cell lung
[3] = test system: HOP-18 NSCLC
[4] = test system: XF 498 CNS
[5] = test system: DMS 273 small cell lung
[6] = test system: LXFL 529 NSCLC
[7] = test system: SN12K1 renal
[8] = test system: P388/ADR leukemia
[9] = test system: P388 leukemia
[10] = test system: RXF-631 renal

| SMILES | TGI [1] [µM] | TGI [2] [µM] | TGI [3] [µM] | TGI [4] [µM] | TGI [5] [µM] | TGI [6] [µM] | TGI [7] [µM] | TGI [8] [µM] | TGI [9] [µM] | TGI [10] [µM] |
| --- | --- | --- | --- | --- | --- | --- | --- | --- | --- | --- |
| CC1CCN(c2cc(-c3cc4ccccc4o3)oc(=O)c2C#N)CC1 | > 100 | > 100 | > 100 | > 100 | > 100 | > 100 | – | – | – | – |
| O=C(/C=C\c1ccc(/C=C/C(=O)Nc2cccc(C3=NCCCN3)c2)cc1)Nc1cccc(C2=NCCCN2)c1 | > 100 | – | > 100 | – | > 100 | – | > 100 | > 100 | > 100 | – |
| Clc1cccc(C2SCc3nc4ccccc4n32)c1 (centres undefined) | 34.1 | – | 47.5 | – | – | > 100 | – | – | – | – |
| CC1=NN(C(=O)c2ccc(C)cc2)C(=O)C1N=Nc1ccccc1C(=O)O (centres undefined) | > 100 | > 100 | > 100 | > 100 | > 100 | – | > 100 | > 100 | > 51.5 | – |
| CCN(CC)C(=S)S | > 100 | – | > 100 | – | – | > 100 | – | – | – | > 67.4 |
| Clc1ccc(-c2nnc(-c3nsc4ccccc34)o2)cc1 | – | > 100 | – | – | > 100 | > 100 | – | – | – | – |
| CCOC(=O)[C@H]1Nc2c(cccc2[N+](=O)[O-])C2c3ccccc3CC21 (some centres undefined) | > 100 | > 100 | – | > 100 | > 100 | > 100 | – | – | – | > 100 |
| N/C(=N\N=C/c1cc([N+](=O)[O-])cc([N+](=O)[O-])c1O)NO | > 100 | > 100 | > 100 | 98.1 | > 43.3 | – | 4.92 | > 100 | 21.9 | – |
